{"source": "patent US9873709B2", "about": "(priority 2013, dated 2018)"}
{"test_system": "JAK1-dependent STAT6 phosphorylation downstream of IL-13 stimulation in TF-1 human erythroleukemia cells", "experiment": "cells", "settings": "TF-1, read-out: IL-13-pSTAT6 IC50", "units": {"IC50": "nM"}, "protocol": "Inhibitor potency (EC50) was determined in cell-based assays designed to measure JAK1 dependent STAT phosphorylation.\nPrior to use in the assays, TF-1 cells were starved of GM-CSF overnight in OptiMEM medium (Life Technologies, Grand Island, N.Y.) supplemented with 0.5% charcoal/dextran stripped fetal bovine serum (FBS), 0.1 mM non-essential amino acids (NEAA), and 1 mM sodium pyruvate. The assays were run in 384-well plates in serum-free OptiMEM medium using 300,000 cells per well. In a second assay approach, BEAS-2B human bronchial epithelial cells obtained from ATCC were plated at 100,000 cells per well of a 96-well plate one day prior to the experiment. The BEAS-2B assay was run in complete growth medium (bronchial epithelial basal medium plus bulletkit; Lonza; Basel, Switzerland).\nTest compounds were serially diluted 1:2 in DMSO and then diluted 1:50 in medium just before use. Diluted compounds were added to the cells, for a final DMSO concentration of 0.2%, and incubated for 30 min (for the TF-1 assay) or 1 hr (for the BEAS-2B assay) at 37° C. Then, cells were stimulated with human recombinant cytokine at their respective EC90 concentrations, as previously determined for each individual lot. […] The resultant samples were frozen in the plates at −80° C. Compound mediated inhibition of STAT6 phosphorylation was measured in the cell lysates using MesoScale Discovery (MSD) technology (Gaithersburg, Md.)."}
{"smiles": "O=C(CCC(F)(F)F)N1CC=C(c2cccn3nc(Nc4ccc(C(=O)N5CCCC(N6CCCCCC6)C5)cc4)nc23)CC1", "note": "(stereo not shown) [Example 2-403, 1-[4-[2-[4-[3-(azepan-1-yl)piperidine-1-carbonyl]anilino]-[1,2,4]triazolo[1,5-a]pyridin-8-yl]-3,6-dihydro-2H-pyridin-1-yl]-4,4,4-trifluoro-butan-1-one]", "IC50": 7.4}
{"smiles": "O=C(CCC(F)(F)F)N1CC=C(c2cccn3nc(Nc4ccc(C(=O)N5CCC(Cc6ccccn6)CC5)cc4)nc23)CC1", "note": "[Example 2-404, 4,4,4-trifluoro-1-[4-[2-[4-[4-(2-pyridylmethyl)piperidine-1-carbonyl]anilino]-[1,2,4]triazolo[1,5-a]pyridin-8-yl]-3,6-dihydro-2H-pyridin-1-yl]butan-1-one]", "IC50": 13.2}
{"smiles": "O=C(CCC(F)(F)F)N1CC=C(c2cccn3nc(Nc4ccc(C(=O)N5CCC(Cc6cccnc6)C5)cc4)nc23)CC1", "note": "(stereo not shown) [Example 2-405, 4,4,4-trifluoro-1-[4-[2-[4-[3-(3-pyridylmethyl)pyrrolidine-1-carbonyl]anilino]-[1,2,4]triazolo[1,5-a]pyridin-8-yl]-3,6-dihydro-2H-pyridin-1-yl]butan-one]", "IC50": 7.5}
{"smiles": "CN(Cc1ccc(N(C)C)cc1)C(=O)c1ccc(Nc2nc3c(C4=CCN(C(=O)CCC(F)(F)F)CC4)cccn3n2)cc1", "note": "[Example 2-406, N-[[4-(dimethylamino)phenyl]-methyl]-N-methyl-4-[[8-[1-(4,4,4-trifluorobutanoyl)-3,6-dihydro-2H-pyridin-4-yl]-[1,2,4]triazolo[1,5-a]pyridin-2-yl]amino]benzamide]", "IC50": 40.4}
{"smiles": "CN(Cc1ccncc1)C(=O)c1ccc(Nc2nc3c(C4=CCN(C(=O)CCC(F)(F)F)CC4)cccn3n2)cc1", "note": "[Example 2-407, N-methyl-N-(4-pyridylmethyl)-4-[[8-[1-(4,4,4-trifluorobutanoyl)-3,6-dihydro-2H-pyridin-4-yl]-[1,2,4]triazolo[1,5-a]pyridin-2-yl]amino]benzamide]", "IC50": 4.7}
{"smiles": "CN1CCC(N(C)C(=O)c2ccc(Nc3nc4c(C5=CCN(C(=O)c6ccccc6)CC5)cccn4n3)cc2)CC1", "note": "[Example 2-408, 4-[[8-(1-benzoyl-3,6-dihydro-2H-pyridin-4-yl)-[1,2,4]triazolo[1,5-a]pyridin-2-yl]amino]-N-methyl-N-(1-methyl-4-piperidyl)benzamide]", "IC50": 188}
{"smiles": "CN1CCC(N(C)C(=O)c2ccc(Nc3nc4c(C5=CCN(C(=O)C6CC6)CC5)cccn4n3)cc2)CC1", "note": "[Example 2-409, 4-[[8-[1-(cyclopropanecarbonyl)-3,6-dihydro-2H-pyridin-4-yl]-[1,2,4]triazolo[1,5-a]pyridin-2-yl]amino]-N-methyl-N-(1-methyl-4-piperidyl)benzamide]", "IC50": 124}
{"smiles": "CC(C)C(=O)N1CC=C(c2cccn3nc(Nc4ccc(C(=O)N(C)C5CCN(C)CC5)cc4)nc23)CC1", "note": "[Example 2-410, N-methyl-N-(1-methyl-4-piperidyl)-4-[[8-[1-(2-methylpropanoyl)-3,6-dihydro-2H-pyridin-4-yl]-[1,2,4]triazolo[1,5-a]pyridin-2-yl]amino]benzamide]", "IC50": 130}
{"smiles": "COCCC(=O)N1CC=C(c2cccn3nc(Nc4ccc(C(=O)N(C)C5CCN(C)CC5)cc4)nc23)CC1", "note": "[Example 2-411, 4-[[8-[1-(3-methoxypropanoyl)-3,6-dihydro-2H-pyridin-4-yl]-[1,2,4]triazolo[1,5-a]pyridin-2-yl]amino]-N-methyl-N-(1-methyl-4-piperidyl)benzamide]", "IC50": 348}
{"smiles": "CC(C)CCC(=O)N1CC=C(c2cccn3nc(Nc4ccc(C(=O)N(C)C5CCN(C)CC5)cc4)nc23)CC1", "note": "[Example 2-412, N-methyl-4-[[8-[1-(4-methylpentanoyl)-3,6-dihydro-2H-pyridin-4-yl]-[1,2,4]triazolo[1,5-a]pyridin-2-yl]amino]-N-(1-methyl-4-piperidyl)benzamide]", "IC50": 26.5}
{"smiles": "CN1CCC(N(C)C(=O)c2ccc(Nc3nc4c(C5=CCN(C(=O)N6CCOCC6)CC5)cccn4n3)cc2)CC1", "note": "[Example 2-413, N-methyl-N-(1-methyl-4-piperidyl)-4-[[8-[1-(morpholine-4-carbonyl)-3,6-dihydro-2H-pyridin-4-yl]-[1,2,4]triazolo[1,5-a]pyridin-2-yl]amino]benzamide]", "IC50": 1260}
{"smiles": "CCOC(=O)N1CC=C(c2cccn3nc(Nc4ccc(C(=O)NCC5CCCCN5C)cc4)nc23)CC1", "note": "(stereo not shown) [Example 2-415, ethyl 4-[2-[4-[(1-methyl-2-piperidyl)methylcarbamoyl]anilino]-[1,2,4]triazolo[1,5-a]pyridin-8-yl]-3,6-dihydro-2H-pyridine-1-carboxylate]", "IC50": 13}
{"smiles": "CCOC(=O)N1CC=C(c2cccn3nc(Nc4ccc(C(=O)NCCC5CCCNC5)cc4)nc23)CC1", "note": "(stereo not shown) [Example 2-416, ethyl 4-[2-[4-[2-(3-piperidyl)ethylcarbamoyl]anilino]-[1,2,4]triazolo[1,5-a]pyridin-8-yl]-3,6-dihydro-2H-pyridine-1-carboxylate]", "IC50": 598}
{"smiles": "CCOC(=O)N1CC=C(c2cccn3nc(Nc4ccc(C(=O)N5CC(C(=O)N6CCN(C)CC6)C5)cc4)nc23)CC1", "note": "[Example 2-421, ethyl 4-[2-[4-[3-(4-methylpiperazine-1-carbonyl)azetidine-1-carbonyl]anilino]-[1,2,4]triazolo[1,5-a]pyridin-8-yl]-3,6-dihydro-2H-pyridine-1-carboxylate]", "IC50": 24.1}
{"smiles": "CCOC(=O)N1CC=C(c2cccn3nc(Nc4ccc(C(=O)NCCc5cccnc5)cc4)nc23)CC1", "note": "[Example 2-422, ethyl 4-[2-[4-[2-(3-pyridyl)ethylcarbamoyl]anilino]-[1,2,4]triazolo[1,5-a]pyridin-8-yl]-3,6-dihydro-2H-pyridine-1-carboxylate]", "IC50": 14}
{"smiles": "CCOC(=O)N1CC=C(c2cccn3nc(Nc4ccc(C(=O)NCCc5ccccn5)cc4)nc23)CC1", "note": "[Example 2-423, ethyl 4-[2-[4-[2-(2-pyridyl)ethylcarbamoyl]anilino]-[1,2,4]triazolo[1,5-a]pyridin-8-yl]-3,6-dihydro-2H-pyridine-1-carboxylate]", "IC50": 17.3}
{"smiles": "CCOC(=O)N1CC=C(c2cccn3nc(Nc4ccc(C(=O)NCC5CCNCC5)cc4)nc23)CC1", "note": "[Example 2-425, ethyl 4-[2-[4-(4-piperidylmethylcarbamoyl)anilino]-[1,2,4]triazolo[1,5-a]pyridin-8-yl]-3,6-dihydro-2H-pyridine-1-carboxylate]", "IC50": 226}
{"smiles": "CCOC(=O)N1CC=C(c2cccn3nc(Nc4ccc(C(=O)N5CCC(Cc6cccnc6)C5)cc4)nc23)CC1", "note": "(stereo not shown) [Example 2-426, ethyl 4-[2-[4-[3-(3-pyridylmethyl)pyrrolidine-1-carbonyl]anilino]-[1,2,4]triazolo[1,5-a]pyridin-8-yl]-3,6-dihydro-2H-pyridine-1-carboxylate]", "IC50": 51}
{"smiles": "CCOC(=O)N1CC=C(c2cccn3nc(Nc4ccc(C(=O)NCC5CCCNC5)cc4)nc23)CC1", "note": "(stereo not shown) [Example 2-427, ethyl 4-[2-[4-(3-piperidylmethylcarbamoyl)anilino]-[1,2,4]triazolo[1,5-a]pyridin-8-yl]-3,6-dihydro-2H-pyridine-1-carboxylate]", "IC50": 215}
{"smiles": "CCOC(=O)N1CC=C(c2cccn3nc(Nc4ccc(C(=O)NCCC5CCCCN5)cc4)nc23)CC1", "note": "(stereo not shown) [Example 2-428, ethyl 4-[2-[4-[2-(2-piperidyl)ethylcarbamoyl]anilino]-[1,2,4]triazolo[1,5-a]pyridin-8-yl]-3,6-dihydro-2H-pyridine-1-carboxylate]", "IC50": 463}
{"smiles": "CCOC(=O)N1CC=C(c2cccn3nc(Nc4ccc(C(=O)N5CCCN(c6ccncc6)CC5)cc4)nc23)CC1", "note": "[Example 2-429, ethyl 4-[2-[4-[4-(4-pyridyl)-1,4-diazepane-1-carbonyl]anilino]-[1,2,4]triazolo[1,5-a]pyridin-8-yl]-3,6-dihydro-2H-pyridine-1-carboxylate]", "IC50": 27.4}
{"smiles": "CCOC(=O)N1CC=C(c2cccn3nc(Nc4ccc(C(=O)N5CC6(CN(C(C)=O)C6)C5)cc4)nc23)CC1", "note": "[Example 2-432, ethyl 4-[2-[4-(6-acetyl-2,6-diazaspiro[3.3]heptane-2-carbonyl)anilino]-[1,2,4]triazolo[1,5-a]pyridin-8-yl]-3,6-dihydro-2H-pyridine-1-carboxylate]", "IC50": 43}
{"smiles": "CCOC(=O)N1CC=C(c2cccn3nc(Nc4ccc(C(=O)NC5CCN(C)C5)cc4)nc23)CC1", "note": "(stereo not shown) [Example 2-433, ethyl 4-[2-[4-[(1-methylpyrrolidin-3-yl)carbamoyl]anilino]-[1,2,4]triazolo[1,5-a]pyridin-8-yl]-3,6-dihydro-2H-pyridine-1-carboxylate]", "IC50": 13.2}
{"smiles": "CCOC(=O)N1CC=C(c2cccn3nc(Nc4ccc(C(=O)N[C@H]5[C@@H]6CNC[C@@H]65)cc4)nc23)CC1", "note": "[Example 2-434, ethyl 4-[2-[4-[[(1S,5R)-3-azabicyclo[3.10]hexan-6-yl]carbamoyl]anilino]-[1,2,4]triazolo[1,5-a]pyridin-8-yl]-3,6-dihydro-2H-pyridine-1-carboxylate]", "IC50": 232}
{"smiles": "CCOC(=O)N1CC=C(c2cccn3nc(Nc4ccc(C(=O)N5CC6(CCCCN6)C5)cc4)nc23)CC1", "note": "[Example 2-437, ethyl 4-[2-[4-(2,5-diazaspiro[3.5]nonane-2-carbonyl)anilino]-[1,2,4]triazolo[1,5-a]pyridin-8-yl]-3,6-dihydro-2H-pyridine-1-carboxylate]", "IC50": 33.7}
{"smiles": "O=C(CCC(F)(F)F)N1CC=C(c2cccn3nc(Nc4ccc(C(=O)N5CCCC56CCNC6)cc4)nc23)CC1", "note": "(stereo not shown) [Example 2-440, 1-[4-[2-[4-(1,7-diazaspiro[4.4]nonane-1-carbonyl)anilino]-[1,2,4]triazolo[1,5-a]pyridin-8-yl]-3,6-dihydro-2H-pyridin-1-yl]-4,4,4-trifluoro-butan-1-one]", "IC50": 156}
{"smiles": "CN(CCN)C(=O)c1ccc(Nc2nc3c(C4=CCN(C(=O)CCC(F)(F)F)CC4)cccn3n2)cc1", "note": "[Example 2-441, N-(2-aminoethyl)-N-methyl-4-[[8-[1-(4,4,4-trifluorobutanoyl)-3,6-dihydro-2H-pyridin-4-yl]-[1,2,4]triazolo[1,5-a]pyridin-2-yl]amino]benzamide]", "IC50": 82.4}
{"smiles": "O=C(CCC(F)(F)F)N1CC=C(c2cccn3nc(Nc4ccc(C(=O)N5CCCC6(CCCNC6)C5)cc4)nc23)CC1", "note": "(stereo not shown) [Example 2-443, 1-[4-[2-[4-(2,8-diazaspiro[5.5]undecane-2-carbonyl)anilino]-[1,2,4]triazolo[1,5-a]pyridin-8-yl]-3,6-dihydro-2H-pyridin-1-yl]-4,4,4-trifluoro-butan-1-one]", "IC50": 72.3}
